Counter-ions that a name gives are not always drawn.
Legend:
Format in all cases: in vivo
C57BL/6N-NASH mice = experiment: Effect in murine NASH-hepatoma models (C57BL/6N-NASH mice); details: 100 mg/kg mixed in feed, 5 weeks
Excerpt: Murine NASH-hepatoma models (brand name: C57BL/6 N-NASH mice) developed in Stelic Institute & Co. (See Japanese Patent Application Laid-Open (JP-A) No. 2009-178143) are provided by Charles River Laboratories Japan, Inc. The murine models develop NASH by initiation of insulin resistance and feeding with a high fat diet. The murine models show changes which histologically reflect the conditions of human NASH. The fatty liver (before 6 weeks old) progresses to NASH (7 weeks old), liver cirrhosis (after 10 weeks old), and liver cancer (after 16 weeks old). Accordingly, it is said that the models are useful in research and development of therapeutic drugs for NASH (See Data of SIAM Mice C57BL/6N-NASH Model Mice (http://www.crj.co.jp/topics/pdf/69/6375030/B6N_NASH_leaflet—091019.pdf)).
Then, the effect of the compound A was examined using murine NASH-hepatoma models with a more serious condition than the knockout mice used in Example 1.
Male C57BL/6N-NASH mice (Charles River Laboratories Japan, Inc.) were used for the experiment. Streptozotocin was administered to the mice aged 1 to 2 days and they were fed with a high fat diet (D12492, Research Diet) from 4 weeks old. The mice were purchased at 6 weeks old and continuously fed with the same high fat diet (hereinafter, the mice are referred to as “C57BL/6N-NASH mice”). As a normal control group, normal mice (C57BL/6N, 6 weeks old, Charles River Laboratories Japan, Inc.) were purchased at the same time and they were fed with an ordinary diet (CE-2, CLEA Japan, Inc.) (hereinafter referred to as “normal mice”).
C57BL/6N-NASH mice were used for a control group and a compound A (100 mg/kg) administered group. The number of mice in each group was six. As normal mice (control group), 6 normal mice (C57BL/6N mice) were used.
The compound A and feeds were mixed to feed the mice. C57BL/6N-NASH mice with NASH aged 7 weeks were fed with the feed mixture. The dosing period was 5 weeks.
After the end of administration, the mice were fasted for 4 hours. The blood was collected from the abdominal portion of vena cava under anesthesia, and the plasma was fractionated. After collecting the blood, the liver was extracted. A part of the liver was frozen for preservation, and the other part was embedded in paraffin in a usual manner. Plasma lipid and plasma ALT levels were measured using an autoanalyzer (Labospect003, Hitachi, Ltd.). Measurement of liver lipid was performed in the following manner. That is, chloroform and methanol (at a ratio of 2:1) were added to a part of the frozen and preserved liver, which was homogenized, and the resultant mixture was allowed to stand at 4° C. overnight, followed by filtration. A part of the filtrate was fractionated, followed by evaporation and drying. The resultant product was dissolved in isopropanol. The concentrations of total cholesterol (TC) and triglyceride (TG) were measured using Cholesterol E-Test Wako and Triglyceride E-Test Wako, respectively. Further, paraffin sections and HE-stained specimens were produced to observe liver tissues.

KK-A^y mice = experiment: Effect in KK-Ay mice fed with MCD diet (NASH model); details: 7 weeks
Excerpt: Rodent models fed with methionine-choline deficient diet (MCD diet) are widely used as NASH models (See Hebbard L, George J.: Animal models of nonalcoholic fatty liver disease Nat Rev Gastroenterol Hepatol. 2011 January; 8 (1):35-44. Epub 2010 Nov. 30.). Among them, models of KK-A^y mice are known to cause marked steatohepatitis and fibrosis (See Okumura K., Ikejima K., Kon K., Abe W., Yamashina S., Enomoto N., Takei Y. and Sato N. (2006) Exacerbation of dietary steatohepatitis and fibrosis in obese, diabetic KK-A^y mice Hepatology Research 2006 36:3 (217-228)). It is considered that the mice are excellent models to examine the drug effect on NASH.
Male KK-A^y mice (KK-A^y/TaJcl mice, 12 weeks old, were purchased from CLEA Japan, Inc.) were used for the experiment. The mice were fed with the MCD diet for 7 weeks to cause NASH.
The mice were separated into a control group, a compound A (30 mg/kg) administered group, and a compound A (200 mg/kg) administered group. The drug and feeds were mixed to feed the mice. The dosing period was 7 weeks.
The compound A and feeds were mixed to feed the mice. The mice was fed with the MCD diet, and fed with the feed mixture at the same time.
The methods were performed, in the same manner as in the case of the murine NASH-hepatoma models described in Example 2. In addition to the HE-stained specimens for observing liver tissues, Azan-stained specimens were also prepared.

[1] = test system: LDL receptor-knockout mice; experiment: Effect in LDL receptor-knockout mouse NASH model (Western diet); details: 12 weeks
Excerpt: An effect in LDL receptor-knockout mice fed with the Western diet which were known to develop fatty liver and hepatic inflammation, i.e., characteristic conditions of NASH (Yoshimatsu M. et al. Int J Exp Pathol., 85(6), 335-43 (2004)) was examined. In the present test, monohydrochloride of 2-[4-[2-(benzimidazol-2-ylthio)ethyl]piperazin-1-yl]-N-[2,4-bis(methylthio)-6-methyl-3-pyridyl]acetamide (hereinafter referred to as “compound A”) was used.
Male LDL receptor-knockout mice (B6.129S7-Ldlr<tm1Her>/J, Jackson Laboratories) were used for the experiment. The mice aged around 8 weeks were allowed to freely intake Teklad Custom Research Diet (TD.88137, manufactured by Harlan Teklad) as a Western diet for 12 weeks to cause them to develop NASH.
The mice were separated into a control group (hydrochloride added purified water) and a compound A (3 mg/kg, as free form) administered group so that there is no difference in the weights between the groups.
The dose was calculated by 10 mL/kg weight. Hydrochloride added purified water and each drug solution were orally administered to the control group and the compound A administered group, respectively, at an interval of at least 6 hours, once in the morning and once in the afternoon. The mice aged around 8 weeks were fed with the Western diet, and the drug solution was administered at the same time. The dosing period was 12 weeks.
After the end of administration, the mice were fasted overnight. The blood was collected from the abdominal portion of vena cava under anesthesia with pentobarbital sodium (50 mg/kg) and the plasma was fractionated. After collecting the blood, the liver was extracted and frozen for preservation. A part of the liver was frozen in ISOGEN (NIPPON GENE, CO., LTD.) and preserved to analyze the gene expression.
Total cholesterol (TC) and triglyceride (TG) in the plasma were measured using Cholesterol E Test Wako and Triglyceride E Test Wako (both manufactured by Wako Pure Chemical Industries, Ltd.), respectively. Measurement of liver lipid was performed in the following manner. Chloroform and methanol (at a ratio of 2:1) were added to the frozen and preserved liver, which was homogenized, and the resultant mixture was allowed to stand at 4° C. longer than overnight, followed by filtration. A part of the filtrate was fractionated, followed by evaporation and drying. The resultant product was dissolved in isopropanol. TC and TG concentrations were measured using Cholesterol E-Test Wako and Triglyceride E-Test Wako, respectively.
Liver gene expression analysis was performed by extracting RNA from the liver and measuring expression levels of TNF-α genes and CD11c genes in adhesion molecules belonging to an integrin family of macrophages by realtime RT-PCR. The liver was homogenized in ISOGEN to extract RNA according to the instruction manual. The concentration of RNA was measured using a spectrophotometer (ND-1000, NanoDrop Technologies, Inc.). Reverse transcription of mRNA from total RNA was performed using High Capacity cDNA Reverse Transcription Kit (Applied Biosystems) to synthesize cDNA. Gene expression analysis was performed by an intercalator method using SYBR green I or a method using Taqman Probe. Realtime RT-PCR was performed using 7900HT Fast Real-Time PCR System (Applied Biosystems). β-actin was used as an internal standard. After correction with β-actin, the expression levels of respective genes were compared with one another. The sequences of the used primers and probes are as follows: […]
The statistical work was performed using the Windows (registered trademark) version of the SAS Preclinical Package (SAS Institute Japan Inc.).

## CSc1cc(C)nc(SC)c1NC(=O)CN1CCN(CCSc2nc3ccccc3[nH]2)CC1 [compound A, monohydrochloride of 2-[4-[2-(benzimidazol-2-ylthio)ethyl]piperazin-1-yl]-N-[2,4-bis(methylthio)-6-methyl-3-pyridyl]acetamide]
C57BL/6N-NASH mice; from 7 weeks old
  plasma lipid: no effect
C57BL/6N-NASH mice; vs NASH control group, FIG. 4
  plasma ALT level: reduced
C57BL/6N-NASH mice; vs NASH control group, FIG. 5
  hepatic TC level: reduced
C57BL/6N-NASH mice; vs NASH control group, FIG. 6
  hepatic TG level: reduced
C57BL/6N-NASH mice; FIG. 7
  development of lipid-droplet deposition in liver (HE-stained): inhibited
KK-A^y mice; 200 mg/kg mixed in feed, FIG. 8
  plasma ALT level: significantly reduced
KK-A^y mice; 30 or 200 mg/kg mixed in feed
  plasma lipid: no effect
KK-A^y mice; mixed in feed, FIG. 9
  hepatic TC level: significantly reduced
KK-A^y mice; mixed in feed, FIG. 10
  hepatic TG level: significantly reduced
KK-A^y mice; mixed in feed, FIG. 11
  development of lipid-droplet deposition in the liver (HE-stained): inhibited
KK-A^y mice; mixed in feed, FIG. 12
  development of fibrosis in the liver (Azan-stained): inhibited
[1]; 3 mg/kg as free form, oral, twice daily, Western diet, FIG. 1A
  total cholesterol (TC) in the plasma: no significant effect
[1]; 3 mg/kg as free form, oral, twice daily, Western diet, FIG. 1B
  triglyceride (TG) in the plasma: no significant effect
[1]; 3 mg/kg as free form, oral, twice daily, Western diet, FIG. 2A
  total cholesterol (TC) in the liver: significant decrease
[1]; 3 mg/kg as free form, oral, twice daily, Western diet, FIG. 2B
  triglyceride (TG) in the liver: significant decrease
[1]; 3 mg/kg, realtime RT-PCR, corrected with β-actin, FIG. 3A
  macrophage CD11c gene expression in the liver: significant decreases
[1]; 3 mg/kg, realtime RT-PCR, corrected with β-actin, FIG. 3B
  inflammatory cytokine TNF-α expression in the liver: significant decreases

From patent publication US20140221390A1, “PROPHYLACTIC AND/OR THERAPEUTIC AGENT FOR NON-ALCOHOLIC STEATOHEPATITIS” (Kowa Company, Ltd., priority 2010, published 2014)
